This is an account of results in patent US20260232643A1, “METHODS OF TREATING SOLID TUMORS WITH MITOGEN ACTIVATED PROTEIN KINASE (MAPK) PATHWAY ALTERATIONS” (Jazz Pharmaceuticals Ireland Limited, priority 2023, published 2026).

In data set [1] the target is T1, ARAF del 347_348 G387D (Homo sapiens, UniProt P10398, DEL347-348/G387D).
T1 sequence (P10398 with tags, fused parts or gaps DEL347-348/G387D): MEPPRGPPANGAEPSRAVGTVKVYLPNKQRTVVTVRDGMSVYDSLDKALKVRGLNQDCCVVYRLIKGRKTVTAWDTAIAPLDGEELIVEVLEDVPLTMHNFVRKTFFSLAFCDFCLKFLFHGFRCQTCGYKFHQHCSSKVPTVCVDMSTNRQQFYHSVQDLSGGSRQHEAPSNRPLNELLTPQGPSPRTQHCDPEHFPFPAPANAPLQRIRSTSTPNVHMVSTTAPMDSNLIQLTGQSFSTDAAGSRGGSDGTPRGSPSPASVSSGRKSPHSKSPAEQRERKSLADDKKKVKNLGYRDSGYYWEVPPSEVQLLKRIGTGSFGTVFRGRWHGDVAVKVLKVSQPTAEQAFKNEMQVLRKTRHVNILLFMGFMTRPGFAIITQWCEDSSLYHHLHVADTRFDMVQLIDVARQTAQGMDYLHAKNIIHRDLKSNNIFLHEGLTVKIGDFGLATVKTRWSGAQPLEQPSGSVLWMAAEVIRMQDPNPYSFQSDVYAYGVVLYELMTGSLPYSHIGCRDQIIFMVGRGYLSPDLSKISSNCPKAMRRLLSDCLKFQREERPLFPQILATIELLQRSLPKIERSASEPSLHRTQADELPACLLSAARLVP
Briefly: PanQinase flash plate-based kinase assay.

Data set [2] addresses T2, ARAF G377R (Homo sapiens, UniProt P10398, G377R).
T2 sequence (P10398 1-606 G377R): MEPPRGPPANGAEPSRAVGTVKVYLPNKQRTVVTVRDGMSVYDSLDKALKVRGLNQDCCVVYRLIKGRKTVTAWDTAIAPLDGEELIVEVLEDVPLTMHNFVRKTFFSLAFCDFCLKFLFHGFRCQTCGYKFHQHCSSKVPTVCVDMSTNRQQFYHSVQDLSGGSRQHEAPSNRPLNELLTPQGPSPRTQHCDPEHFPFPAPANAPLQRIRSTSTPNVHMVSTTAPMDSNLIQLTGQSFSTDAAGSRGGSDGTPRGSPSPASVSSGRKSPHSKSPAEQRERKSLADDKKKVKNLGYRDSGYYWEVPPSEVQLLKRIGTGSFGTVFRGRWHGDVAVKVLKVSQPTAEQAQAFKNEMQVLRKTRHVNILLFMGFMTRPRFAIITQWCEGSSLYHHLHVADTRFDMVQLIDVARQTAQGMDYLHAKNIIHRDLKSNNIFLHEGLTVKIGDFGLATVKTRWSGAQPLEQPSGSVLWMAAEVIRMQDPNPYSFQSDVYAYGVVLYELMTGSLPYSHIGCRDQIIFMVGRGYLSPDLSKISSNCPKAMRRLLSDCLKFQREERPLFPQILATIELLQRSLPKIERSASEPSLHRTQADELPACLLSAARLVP
The experiment in a line: PanQinase flash plate-based kinase assay.

The target in data set [3] is T3, ARAF del 347_348 (Homo sapiens, UniProt P10398, DEL347-348).
T3 sequence (P10398 with tags, fused parts or gaps DEL347-348): T1 sequence (P10398 with tags, fused parts or gaps DEL347-348/G387D) with D385G
Briefly: PanQinase flash plate-based kinase assay.

Data set [4] addresses BRAF V600E (Homo sapiens, UniProt P15056, V600E). Briefly: PanQinase flash plate-based kinase assay.
Data set [5] has as its target T4, ARAF WT (Homo sapiens, UniProt P10398).
T4 sequence (P10398 1-606): T2 sequence (P10398 1-606 G377R) with R377G
The experiment in a line: PanQinase flash plate-based kinase assay.

Data set [6] has as its target CRAF WT (Homo sapiens, UniProt P04049, Y340D/Y341D). Briefly: PanQinase flash plate-based kinase assay.
The target in data set [7] is BRAF WT (Homo sapiens, UniProt P15056). The experiment in a line: PanQinase flash plate-based kinase assay.
Data set [8] concerns metastatic NRASQ61 mutated melanoma. It counts as in vivo, human. The procedure: This is a phase 1 study of Compound I in participants with advanced or metastatic solid tumors harboring alterations in the MAPK pathway. The study comprises 2 parts: dose exploration (Part A) and expansion (Part B).
Compound I (i.e., (S)-5-((3-(4-(4-fluorophenyl)-1H-imidazol-2-yl) chroman-6-yl)oxy)-3,4-dihydro-1,8-naphthyridin-2 (1H)-one) is orally administered to participants BID in a capsule formulation with unit dose strengths of 10 mg or 25 mg, taken approximately 12 hours apart in the morning and in the evening. Specifically, in Part A, Compound I is administered as a single dose on Cycle 1 Day 1, with no doses administered on Days 2 and 3 before proceeding with BID dosing on Day 4 and after.
Tumor response to therapy will be assessed by the investigator using RECIST v1.1. Tumor assessments will be made by CT/MRI/PE at Screening, on Day 1 of Cycle 3 (Day 57), and every 2 cycles (56 days) thereafter until Dayl of Cycle 13, after which tumor assessments will be every 3 cycles (84 days) and at the End of Treatment Visit. Tumor assessments will include all known or suspected disease sites. Imaging must include chest, abdomen, and pelvis CT or MRI scans. Imaging will be performed on the abdomen, chest, pelvis, and the site of the primary tumor if it is located elsewhere.
Dosing regimens: To assess the safety and efficacy of Compound I in the cancer treatment, Compound I was orally administered to participants at 20 mg BID (“bis in die”, or “twice a day”), 30 mg BID, 50 mg BID, 50 mg QD (“quaque die”, “once a day”), 75 mg BID, or 100 mg QD for a period of time. Treatment-related adverse events (TRAE, Grade≤2 and Grade ≥3) were monitored and recorded. The efficacy of Compound I in treating cancer was determined by using radiologic tumor assessment as per RECIST v1.1 (e.g., PET-CT or MRI scans).

Data set [9] has as its system RAS (NRAS and KRAS) and RAF (BRAF Class 2/3) mutation driven colorectal cancer, non-small cell lung cancer, melanoma, and ovarian cancer xenografts. The experiment in a line: Tumor growth inhibition in xenograft mice models. It counts as in vivo. To be noted: 10 mg/kg BID, 30 mg/kg BID, 30 mg/kg QD, 100 mg/kg QD, FIGS. 1A-E.
Method: Vehicle was administered BID as a control.
The effect of Compound I in tumor growth inhibition was evaluated in xenograft mice models carrying pathogenic RAS (NRAS and KRAS) and RAF (BRAF Class 2/3) mutation driven colorectal cancer, non-small cell lung cancer, melanoma, and ovarian cancer.
Data set [10] concerns Sprague Dawley rats. To be noted: 0, 10, 20, or 45 mg/kg/day once daily via oral gavage. Here is the method: (§1) Compound I was evaluated in GLP-compliant 28-day oral toxicity studies in 2 preclinical species, Sprague Dawley rats and beagle dogs. In the rat 28-day study, Compound I was administered at 0, 10, 20, or 45 mg/kg/day once daily via oral gavage. […] In the dog 28-day study, Compound I was administered at 0, 3.75, 7.5, or 15 mg/kg/day once daily via oral gavage.

Data set [11] concerns beagle dogs. To be noted: 0, 3.75, 7.5, or 15 mg/kg/day once daily via oral gavage. The procedure: as §1

The structures appear in SMILES notation. Positions count from the first letter of the chain named. Values joined by “and” are separate entries in the source; they are usually repeats but may differ in a detail not shown here. Equal values may be shown once. Read-outs that look alike come from different tables or passages of the source.

Chain of CRAF WT (P04049 307-648 Y340D/Y341D): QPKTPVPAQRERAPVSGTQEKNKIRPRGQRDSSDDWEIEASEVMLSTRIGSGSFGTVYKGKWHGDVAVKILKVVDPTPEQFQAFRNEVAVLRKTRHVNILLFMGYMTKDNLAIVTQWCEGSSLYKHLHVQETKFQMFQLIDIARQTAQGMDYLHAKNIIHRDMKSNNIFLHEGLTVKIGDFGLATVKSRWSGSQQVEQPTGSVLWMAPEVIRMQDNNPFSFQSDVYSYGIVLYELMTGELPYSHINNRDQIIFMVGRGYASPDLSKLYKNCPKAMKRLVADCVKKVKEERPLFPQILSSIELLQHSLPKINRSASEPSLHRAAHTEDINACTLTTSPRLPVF
Chain of BRAF V600E (P15056 whole entry V600E): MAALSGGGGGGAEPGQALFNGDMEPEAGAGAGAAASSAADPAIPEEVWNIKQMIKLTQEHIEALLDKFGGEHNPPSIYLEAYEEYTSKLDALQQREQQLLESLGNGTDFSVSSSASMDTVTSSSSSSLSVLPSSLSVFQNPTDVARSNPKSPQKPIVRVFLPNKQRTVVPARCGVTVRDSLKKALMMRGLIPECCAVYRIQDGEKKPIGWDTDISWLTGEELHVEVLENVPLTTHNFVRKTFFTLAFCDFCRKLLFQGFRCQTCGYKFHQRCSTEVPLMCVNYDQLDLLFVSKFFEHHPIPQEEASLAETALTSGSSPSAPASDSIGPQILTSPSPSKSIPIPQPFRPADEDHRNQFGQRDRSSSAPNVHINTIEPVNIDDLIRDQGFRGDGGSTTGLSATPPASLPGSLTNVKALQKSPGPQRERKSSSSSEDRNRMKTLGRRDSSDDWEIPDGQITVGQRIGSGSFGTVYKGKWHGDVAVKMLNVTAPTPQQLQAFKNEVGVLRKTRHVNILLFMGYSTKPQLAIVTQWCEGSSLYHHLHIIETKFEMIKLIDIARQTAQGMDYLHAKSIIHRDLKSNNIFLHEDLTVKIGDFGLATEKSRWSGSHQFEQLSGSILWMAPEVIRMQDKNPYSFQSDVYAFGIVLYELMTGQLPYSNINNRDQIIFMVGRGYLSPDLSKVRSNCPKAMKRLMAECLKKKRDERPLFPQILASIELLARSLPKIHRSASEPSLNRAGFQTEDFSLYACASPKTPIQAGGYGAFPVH
Chain of BRAF WT (P15056 whole entry): as the sequence (P15056 whole entry V600E) above, with E600V counted along it

On to `Cc1ccc2c(Nc3cccc(Cl)c3F)nccc2c1NC(=O)c1csc2c(N)ncnc12` [Belvarafenib], for which the IC50 in data set [1] was 46.5 nM; in [2] it was 754 nM; in data set [3] it was 60.3 nM; in [4] it was 193 nM; in data set [5], 26 nM; in [6], 9.1 nM. For the same compound, in [7], the IC50 is 97.2 nM.

For the compound `O=C1CCc2c(Oc3ccc4c(c3)CC(c3ncc(-c5ccc(F)cc5)[nH]3)CO4)ccnc2N1` (stereo not drawn) [Compound I, 5-((3-(4-(4-fluorophenyl)-1H-imidazol-2-yl)chroman-6-yl)oxy)-3,4-dihydro-1,8-naphthyridin-2 (1H)-one], the “predicted human Vss” value was 0.77 L/kg. This compound also came in with a half-maximal inhibitory concentration (IC50) in data set [1] of 20.4 nM. Besides, the “reduction in target lesions” value in data set [8] (after 2 months, n=1, metastatic NRASQ61 mutated melanoma, 50 mg QD) was determined as 61%. The “reduction in the target lesion” value in data set [8] (after 4 months (confirmation of PR), n=1, metastatic NRASQ61 mutated melanoma, 50 mg QD) is given as 69%. Moreover, the “PET avidity (PET/CT)” value in data set [8] (n=1, metastatic NRASQ61 mutated melanoma, 50 mg QD, FIG. 3) is on record as “significant resolution of PET avidity”. In data set [8] (participant (n=1), metastatic NRASQ61 mutated melanoma, 50 mg QD oral), the “tumor response per RECIST v1.1” value is listed as “partial response (PR)”. Further, for the setting “allometrically scaled”, the “predicted human CL” value is on record as 1.2 mL/min/kg. Also, the tumor growth inhibition entry in data set [9] is given as “dose-dependent tumor growth inhibition effect”. For the same compound, half-maximal inhibition in data set [2] (IC50) required 142 nM. In addition, 68.3 nM corresponded to half-maximal inhibition in [3] (IC50). In data set [4], this compound registered an IC50 of 40.2 nM. Moreover, the IC50 in [5] (average IC50 ARAF WT, PanQinase flash plate assay, kinase dead MEK K97M substrate, 0.1-3 μM ATP) is 15.7 nM and 11.4 nM. Further, the “findings in 28-day oral toxicity study” value in data set [10] is “No mortality, and no clinical signs, changes in body weight or food consumption, ophthalmology, clinical pathology or macroscopic findings of toxicological relevance were noted”. The “findings in 28-day oral toxicity study” value in data set [11] is “No mortality, and no clinical signs, changes in body weight or food consumption, ophthalmology, ECG, clinical pathology, macroscopic or microscopic findings of toxicological relevance were noted”. In data set [6], this compound came in with an IC50 of 2.3 nM. This compound also came in with an IC50 in data set [7] of 40.6 nM.

In the case of `Cc1ccc(NC(=O)c2ccnc(C(F)(F)F)c2)cc1-c1cc(OCCO)nc(N2CCOCC2)c1` [Naporafenib], the IC50 was found to be 67.2 nM in [1]; 621 nM in [2]; 154 nM in data set [3]; 191 nM in data set [4]; 63.5 nM in [5]; 9.7 nM in data set [6]. In addition, the IC50 in [7] is 141 nM.

As a reminder, the IC50 is the midpoint of a concentration-inhibition curve. Low values mean greater potency in that assay, high ones weaker potency in that assay.
